In the NIST ThermoML archive (doi:10.1007/s10765-010-0737-5):

Test: xn = mol fraction of the nth substance listed
Details: Liquid; for viscosity: 101 kPa, Capillary tube (Ostwald / Ubbelohde) method; for mass density: 101.3 kPa

CC(C)CCl [1-chloro-2-methylpropane] + CC(C)OC(C)C
Details | mass density [kg/m3] | viscosity [mPa·s]
283.15 K, x1 = 0.0549 | 740.509 | 0.3695
283.15 K, x1 = 0.091 | 745.071 | 0.3728
283.15 K, x1 = 0.1977 | 758.96 | 0.3837
283.15 K, x1 = 0.2934 | 772.077 | 0.3947
283.15 K, x1 = 0.3911 | 785.941 | 0.4069
283.15 K, x1 = 0.5137 | 804.21 | 0.424
283.15 K, x1 = 0.6034 | 818.258 | 0.438
283.15 K, x1 = 0.6769 | 830.206 | 0.4502
283.15 K, x1 = 0.8059 | 852.473 | 0.4739
283.15 K, x1 = 0.9111 | 871.773 | 0.4955
283.15 K, x1 = 0.9646 | 881.981 | 0.5074
283.15 K, x1 = 1 | 888.845 | 0.5155
288.15 K, x1 = 0.0549 | 735.346 | 0.3532
288.15 K, x1 = 0.091 | 739.888 | 0.3565
288.15 K, x1 = 0.1977 | 753.737 | 0.3666
288.15 K, x1 = 0.2934 | 766.807 | 0.3765
288.15 K, x1 = 0.3911 | 780.617 | 0.3876
288.15 K, x1 = 0.5137 | 798.831 | 0.403
288.15 K, x1 = 0.6034 | 812.821 | 0.4152
288.15 K, x1 = 0.6769 | 824.734 | 0.4261
288.15 K, x1 = 0.8059 | 846.936 | 0.447
288.15 K, x1 = 0.9111 | 866.179 | 0.4658
288.15 K, x1 = 0.9646 | 876.368 | 0.4761
288.15 K, x1 = 1 | 883.211 | 0.4833
293.15 K, x1 = 0.0549 | 730.142 | 0.3383
293.15 K, x1 = 0.091 | 734.678 | 0.3412
293.15 K, x1 = 0.1977 | 748.467 | 0.3504
293.15 K, x1 = 0.2934 | 761.481 | 0.3595
293.15 K, x1 = 0.3911 | 775.245 | 0.3694
293.15 K, x1 = 0.5137 | 793.406 | 0.3831
293.15 K, x1 = 0.6034 | 807.35 | 0.3941
293.15 K, x1 = 0.6769 | 819.228 | 0.4038
293.15 K, x1 = 0.8059 | 841.356 | 0.4222
293.15 K, x1 = 0.9111 | 860.549 | 0.4386
293.15 K, x1 = 0.9646 | 870.717 | 0.4478
293.15 K, x1 = 1 | 877.539 | 0.454
298.15 K, x1 = 0.0549 | 724.887 | 0.3219
298.15 K, x1 = 0.091 | 729.395 | 0.3247
298.15 K, x1 = 0.1977 | 743.114 | 0.3337
298.15 K, x1 = 0.2934 | 756.06 | 0.3423
298.15 K, x1 = 0.3911 | 769.763 | 0.3515
298.15 K, x1 = 0.5137 | 787.825 | 0.3644
298.15 K, x1 = 0.6034 | 801.699 | 0.3747
298.15 K, x1 = 0.6769 | 813.519 | 0.3834
298.15 K, x1 = 0.8059 | 835.53 | 0.4003
298.15 K, x1 = 0.9111 | 854.603 | 0.4156
298.15 K, x1 = 0.9646 | 864.749 | 0.4238
298.15 K, x1 = 1 | 871.533 | 0.4296
303.15 K, x1 = 0.0549 | 719.603 | 0.3043
303.15 K, x1 = 0.091 | 724.11 | 0.3069
303.15 K, x1 = 0.1977 | 737.798 | 0.316
303.15 K, x1 = 0.2934 | 750.738 | 0.3246
303.15 K, x1 = 0.3911 | 764.421 | 0.3341
303.15 K, x1 = 0.5137 | 782.446 | 0.3469
303.15 K, x1 = 0.6034 | 796.305 | 0.357
303.15 K, x1 = 0.6769 | 808.11 | 0.3659
303.15 K, x1 = 0.8059 | 830.111 | 0.3826
303.15 K, x1 = 0.9111 | 849.196 | 0.3975
303.15 K, x1 = 0.9646 | 859.307 | 0.4058
303.15 K, x1 = 1 | 866.096 | 0.4112
308.15 K, x1 = 0.0549 | 714.28 | 0.2896
308.15 K, x1 = 0.091 | 718.759 | 0.2926
308.15 K, x1 = 0.1977 | 732.397 | 0.3012
308.15 K, x1 = 0.2934 | 745.3 | 0.3094
308.15 K, x1 = 0.3911 | 758.935 | 0.3184
308.15 K, x1 = 0.5137 | 776.901 | 0.3308
308.15 K, x1 = 0.6034 | 790.719 | 0.3404
308.15 K, x1 = 0.6769 | 802.492 | 0.3489
308.15 K, x1 = 0.8059 | 824.422 | 0.3647
308.15 K, x1 = 0.9111 | 843.468 | 0.3791
308.15 K, x1 = 0.9646 | 853.542 | 0.3867
308.15 K, x1 = 1 | 860.319 | 0.3921
313.15 K, x1 = 0.0549 | 708.887 | 0.2761
313.15 K, x1 = 0.091 | 713.334 | 0.2788
313.15 K, x1 = 0.1977 | 726.882 | 0.287
313.15 K, x1 = 0.2934 | 739.693 | 0.2948
313.15 K, x1 = 0.3911 | 753.227 | 0.3033
313.15 K, x1 = 0.5137 | 771.077 | 0.315
313.15 K, x1 = 0.6034 | 784.802 | 0.324
313.15 K, x1 = 0.6769 | 796.487 | 0.3322
313.15 K, x1 = 0.8059 | 818.264 | 0.3472
313.15 K, x1 = 0.9111 | 837.168 | 0.3607
313.15 K, x1 = 0.9646 | 847.176 | 0.3677
313.15 K, x1 = 1 | 853.902 | 0.3726
